Results on eleven compounds are retold here after ChEMBL document CHEMBL1201862, “PubChem BioAssay data set” (2004).

Among the test systems are NCI-H226; Malme-3M; U-251; HCC 2998; NCI-H522; HCT-116; CCRF-CEM; UO-31; M14; SK-MEL-28; HCT-15; EKVX; SK-MEL-5; SK-MEL-2; SR; HT-29; IGROV-1; HOP-92; OVCAR-8; RXF 393.
What all share (assay): growth of human tumour cells (NCI), 48 h

Structures are written as SMILES.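 Step 1: Grow cells in 96-well plates. Step 2: Expose to compound for 48 hours at 5 concentrations. Step 3: Interpolate endpoints linearly; if unreached, use highest concentration. GI50 = concentration required for 50% inhibition of growth.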 Calls of active or inactive are those of the source. No stated cut-off is given here; in the data, active = GI50 up to about 1.1 µM and inactive = higher.

Turning to `COc1ccc(C(=C2C=CC=C2)c2ccc(OC)cc2)cc1`, the GI50 with NCI-H226 was 50.5 µM (inactive); in the assay with Malme-3M, 28.8 µM (inactive); in the assay on U-251 it was 27.7 µM (inactive); in the assay with HCC 2998, 19.3 µM (inactive); with NCI-H522, 19.3 µM (inactive); in the assay with HCT-116 it was 26.4 µM (inactive). For the same compound, the GI50 with CCRF-CEM was 21.9 µM (inactive); with UO-31, 28.5 µM (inactive); in the assay with M14, 61.1 µM (inactive); in the assay with SK-MEL-28 it was 53.5 µM (inactive); in the assay on HCT-15, 25.5 µM; in the assay on EKVX, 41 µM (inactive). For the same compound, the GI50 was 30.2 µM (inactive) with SK-MEL-5; 24.8 µM (inactive) in the assay on SK-MEL-2; 25.9 µM (inactive) in the assay on SR; 24 µM (inactive) with HT-29; 52 µM (inactive) in the assay with IGROV-1; 27.8 µM (inactive) in the assay on HOP-92. Also, the GI50 with OVCAR-8 was 44.5 µM (inactive); in the assay with RXF 393, 25.2 µM (inactive).

Consider `COC(=O)C1=C(C)N2CCSC2(C)C(C(=O)OC)C1c1cccc(Cl)c1` (stereo not given), for which the GI50 in the assay with NCI-H226 was 19.2 µM (inactive); in the assay with HCC 2998, 21 µM (inactive); in the assay on HCT-116, 13.6 µM (inactive); in the assay with CCRF-CEM it was 23.1 µM (inactive); in the assay on UO-31, 13.2 µM (inactive); in the assay on M14 it was 30.1 µM (inactive). The GI50 was 19.1 µM (inactive) in the assay on SK-MEL-28; 12.6 µM (inactive) in the assay with EKVX; 14.5 µM (inactive) in the assay with SK-MEL-5; 17.7 µM (inactive) in the assay on SK-MEL-2; 15.5 µM (inactive) in the assay with SR; 16.6 µM (inactive) with HT-29. The GI50 in the assay on IGROV-1 is 20.8 µM (inactive); in the assay with HOP-92, 13.4 µM (inactive); with OVCAR-8, 22.6 µM (inactive); in the assay on RXF 393, 21.9 µM (inactive).

Take `Oc1cc2cc(O)nc(O)c2c(O)n1`: the GI50 in the assay on NCI-H226, with Malme-3M, in the assay on U-251, with NCI-H522, with HCT-116 and with CCRF-CEM was > 100 µM (inactive) each time. In addition, the GI50 in the assay with UO-31 is > 100 µM (inactive); with M14 it was > 100 µM (inactive); in the assay with HCT-15, > 100 µM; in the assay with SK-MEL-5, > 100 µM (inactive); with SR, > 100 µM (inactive); in the assay with HT-29, > 100 µM (inactive). Besides, the GI50 in the assay on IGROV-1, in the assay on HOP-92 and with RXF 393 was > 100 µM (inactive) each time.

In the case of `CC(=N/NC(=S)Nc1c(C)n(C)n(-c2ccccc2)c1=O)/C(C)=N\NC(=S)Nc1c(C)n(C)n(-c2ccccc2)c1=O`, the GI50 with NCI-H226, in the assay on Malme-3M, in the assay with U-251, in the assay on HCC 2998, in the assay with NCI-H522 and with HCT-116 was > 100 µM (inactive) in each case. Besides, the GI50 in the assay with UO-31 was > 100 µM (inactive); in the assay on M14, > 100 µM (inactive); in the assay on HCT-15 it was > 100 µM; in the assay with EKVX it was > 100 µM (inactive); in the assay with SK-MEL-5 it was > 100 µM (inactive); with SK-MEL-2, > 100 µM (inactive). Also, the GI50 with SR, in the assay with HT-29, in the assay with HOP-92, with OVCAR-8 and in the assay on RXF 393 was > 100 µM (inactive) in each case.

Turning to `CN(C)/N=C(/CC(O)(C(F)(F)F)C(F)(F)F)c1ccc([N+](=O)[O-])cc1`, the GI50 with NCI-H226, with Malme-3M, in the assay with U-251, with HCC 2998, with NCI-H522 and in the assay with HCT-116 was > 100 µM (inactive) in each case. For the same compound, the GI50 was > 100 µM (inactive) in the assay with CCRF-CEM; 98.6 µM (inactive) in the assay with UO-31; > 100 µM (inactive) in the assay on M14; > 100 µM (inactive) with SK-MEL-28; > 100 µM with HCT-15; > 100 µM (inactive) in the assay on EKVX. The GI50 is > 100 µM (inactive) in the assay with SK-MEL-5; > 100 µM (inactive) in the assay on SK-MEL-2; > 100 µM (inactive) in the assay on SR; > 100 µM (inactive) with HT-29; 80.5 µM (inactive) in the assay on IGROV-1; > 100 µM (inactive) with HOP-92. Further, the GI50 in the assay with OVCAR-8 and in the assay on RXF 393 was > 100 µM (inactive) each time.

With `c1ccc(P2c3ccccc3Nc3ccccc32)cc1`, the GI50 was 99.5 µM (inactive) with NCI-H226; 49.3 µM (inactive) in the assay with Malme-3M; 56.1 µM (inactive) in the assay with U-251; > 100 µM (inactive) in the assay with HCC 2998; 62.5 µM (inactive) in the assay with NCI-H522; 38.6 µM (inactive) with HCT-116. Besides, the GI50 in the assay on CCRF-CEM is 23.6 µM (inactive); in the assay on UO-31, > 100 µM (inactive); in the assay with M14 it was 66.2 µM (inactive); in the assay on SK-MEL-28, > 100 µM (inactive); with HCT-15, > 100 µM; with EKVX it was 34 µM (inactive). Further, the GI50 is 30.8 µM (inactive) with SK-MEL-5; 36 µM (inactive) with SK-MEL-2; 23.2 µM (inactive) with SR; 49 µM (inactive) in the assay with HT-29; 71 µM (inactive) in the assay on IGROV-1; 30.1 µM (inactive) in the assay on HOP-92. Moreover, the results for the GI50 in the assay with OVCAR-8 and in the assay on RXF 393 were > 100 µM (inactive) and 29.5 µM (inactive), respectively.

In the case of `COc1cc(CNc2nc3c(NC(C)=O)cc(C(F)(F)F)cc3nc2-c2ccccc2)cc(OC)c1OC`, the GI50 in the assay on NCI-H226 is > 100 µM (inactive); with Malme-3M it was 19.6 µM (inactive); in the assay on HCC 2998, > 100 µM (inactive); in the assay on NCI-H522 it was > 100 µM (inactive); with HCT-116, > 100 µM (inactive); in the assay on CCRF-CEM it was > 100 µM (inactive). For the same compound, the GI50 in the assay on UO-31 was > 100 µM (inactive); in the assay on SK-MEL-28, > 100 µM (inactive); in the assay with HCT-15, > 100 µM; with EKVX, > 100 µM (inactive); with SK-MEL-5, > 100 µM (inactive); in the assay on SK-MEL-2 it was > 100 µM (inactive). For the same compound, the GI50 is > 100 µM (inactive) in the assay with SR; > 100 µM (inactive) in the assay on IGROV-1; 17.8 µM (inactive) in the assay with HOP-92; > 100 µM (inactive) in the assay on OVCAR-8; 90.4 µM (inactive) in the assay with RXF 393.

`CC[N+]1(C)CCC(O)(c2ccccc2)C(C(=O)c2ccccc2)C1` (stereo not given): the GI50 was 18.6 µM (inactive) in the assay on NCI-H226; 16.7 µM (inactive) in the assay with Malme-3M; 20.6 µM (inactive) in the assay with U-251; 34 µM (inactive) in the assay on HCC 2998; 1.75 µM (inactive) in the assay with NCI-H522; 13.6 µM (inactive) in the assay on HCT-116. Also, the GI50 in the assay with CCRF-CEM was 2.04 µM (inactive); in the assay with UO-31 it was 18.7 µM (inactive); with M14 it was 9.71 µM (inactive); with SK-MEL-28, 15.2 µM (inactive); in the assay with HCT-15 it was 9.73 µM; with EKVX it was 21.1 µM (inactive). Moreover, the GI50 is 18.6 µM (inactive) with SK-MEL-5; 18.7 µM (inactive) in the assay with SK-MEL-2; 5.43 µM (inactive) with SR; 12.5 µM (inactive) in the assay with HT-29; 19.8 µM (inactive) in the assay on IGROV-1; 8.3 µM (inactive) with HOP-92. The figures for the GI50 in the assay on OVCAR-8 and with RXF 393 were 25.8 µM (inactive) and 12.4 µM (inactive), respectively.

Consider `CC1CC2C3CCC4=CC(=O)C=CC4(C)C3(F)C(O)CC2(C)C1(O)C(=O)COP(=O)(O)O` (stereo not given), for which the GI50 with NCI-H226 is > 100 µM (inactive); in the assay on Malme-3M, > 100 µM (inactive); with U-251 it was > 100 µM (inactive); with HCC 2998 it was > 100 µM (inactive); with NCI-H522, > 100 µM (inactive); in the assay on HCT-116, > 33.7 µM (inactive). The GI50 in the assay on CCRF-CEM is 0.144 µM (active); with UO-31 it was > 100 µM (inactive); in the assay on M14 it was > 100 µM (inactive); with SK-MEL-28 it was > 100 µM (inactive); with HCT-15, > 100 µM; in the assay with EKVX, > 100 µM (inactive). In addition, the GI50 is > 100 µM (inactive) with SK-MEL-5; > 100 µM (inactive) in the assay with SK-MEL-2; 46.6 µM (inactive) with SR; > 100 µM (inactive) in the assay on HT-29; > 100 µM (inactive) in the assay with IGROV-1; > 100 µM (inactive) in the assay with HOP-92. For the same compound, the GI50 in the assay with OVCAR-8 and in the assay on RXF 393 was > 100 µM (inactive) throughout.

Turning to `CC(=O)NC(CCC(=O)C=[N+]=[N-])C(=O)O` (stereo not given), the GI50 in the assay on NCI-H226, in the assay on Malme-3M, in the assay on U-251, in the assay on HCC 2998, in the assay with NCI-H522 and in the assay with HCT-116 was > 100 µM (inactive) each time. Further, the GI50 with CCRF-CEM was > 100 µM (inactive); in the assay on UO-31, > 100 µM (inactive); in the assay with M14, > 100 µM (inactive); in the assay with SK-MEL-28 it was > 100 µM (inactive); in the assay with HCT-15, > 100 µM; with EKVX, > 100 µM (inactive). The GI50 with SK-MEL-5, in the assay with SK-MEL-2, with SR, with HT-29, with IGROV-1 and in the assay on HOP-92 was > 100 µM (inactive) each time. Besides, the GI50 with OVCAR-8 and with RXF 393 was > 100 µM (inactive) each time.

On to `COC1=CC(C2c3cc4c(cc3[C@@H](Nc3ccc([N+](=O)[O-])cc3)C3COC(=O)[C@H]23)OCO4)=CC(=O)C1=O` (stereo not given in full), for which the GI50 was 1.64 µM (inactive) with NCI-H226; 4.46 µM (inactive) in the assay with Malme-3M; 1.35 µM (inactive) in the assay on U-251; 2.63 µM (inactive) with HCC 2998; 2.58 µM (inactive) in the assay with NCI-H522; 6.64 µM (inactive) in the assay with HCT-116. Further, the GI50 is 1.06 µM (active) in the assay on CCRF-CEM; 6.24 µM (inactive) with UO-31; 3.29 µM (inactive) in the assay on M14; 14.8 µM (inactive) with SK-MEL-28; 3.27 µM in the assay on HCT-15; 7.57 µM (inactive) in the assay on EKVX. In addition, the GI50 with SK-MEL-5 is 3.48 µM (inactive); in the assay with SK-MEL-2, 17 µM (inactive); in the assay with SR, 0.179 µM (active); in the assay with HT-29, 7.21 µM (inactive); with IGROV-1 it was 13 µM (inactive); in the assay on HOP-92, 1.52 µM (inactive). Moreover, the GI50 with OVCAR-8 is 4.25 µM (inactive); in the assay on RXF 393 it was 17.9 µM (inactive).
